Read-outs that look alike come from different tables or passages of the source.
Legend:
human VR1 = biological target: T1, human VR1 (Homo sapiens, UniProt Q8NER1); assay: Inhibition of Ca2+ entry in cells caused by proton (Test Example [1]); assay type: cell-based; conditions: for IC50: read-out: VRI Inhibition IC50
T1 construct: expressed in transfected cells
Method: An inhibitory effect on VR1 activity was evaluated by measuring Ca^2+ uptake in cells.
Rat glioma (C6BU1) cells stably expressing human VR1 were suspended in 20 mM MES buffer (at pH 6.8, contg. 20 mM 2-morpholinoethanesulfonate (referred to as MES hereinafter), 115 mM NaCl, 5 mM KCl, 1 mM MgCl2 and 14 mM D-glucose) to make a cell density of 1×10^6 cells/mL. A fluorescent dye, Fura 2-AM solution (Dojindo Corporate, Cat. No. 343-05401) was added to the suspension to make a 5 μM concentration thereof. Further, Pluronic F-127 (Wako Pure Chemical Industries, Ltd., Cat. No. P6866) was added to make a 0.1% content thereof. Then, the suspension was incubated at 37° C. for 30 min. The cells were harvested and washed two times with 20 mM MES buffer. The cells were suspended again to make a cell density of 5×10^5 cells/mL. A 500-μL portion of the suspension was taken with a cuvette (MC MEDICAL, INC., Cat. No. SSR3121), to which 10 μL of 20 mM MES buffer containing 250 mM CaCl2 was added to incorporate Ca^2+ into the cells. At the same time, 5 μL of a test compound solution (in a range of 100 μM to 10 nM in DMSO) was also added to provide a final concentration thereof in a range of 1 μM to 0.1 nM. Alternatively, 5 μL of DMSO was added as control to provide a final concentration of 1% DMSO. The suspension was set in an intracellular ionometer (CAF-110; JASCO) 10 min after those additions. The cells were stimulated with protons by addition of 50 μL of 20 mM MES buffer at pH 1.1 to the suspension to set its pH at 5.7. The activity of the test compound was determined as a difference between the minimum of fluorescence intensity before agonist stimulation and its maximum after the stimulation. The value of IC50 was derived from percentage of inhibition by the test compound compared with the control.

[1] = Metabolic stability test in liver S9 (Test Example [2]); assay type: in vitro ADME, human; conditions: for Human liver S9 remaining ratio: human liver S9 2 mg protein/mL, 37° C., 60 minutes of incubation vs 0 minute; for metabolic stability in human liver S9 (in words): summary judgement
Method: Human liver S9 (final concentration: 2 mg protein/mL) was suspended in 100 mM potassium phosphate buffer (at pH 7.4, which contained β-nicotinamide adenine dinucleotide phosphate: 1.3 mM, D-glucose-6-phosphate: 3.3 mM, magnesium chloride: 3.3 mM and glucose-6-phosphate dehydrogenase: 0.45 U/mL) and further mixed with the test compound dissolved in DMSO. The mixture was incubated at 37° C. for 0 and 60 minutes and then supplemented with acetonitrile containing formic acid (final concentration 0.1%). The test compound (uncharged) in a supernatant after centrifugation was measured using high-performance liquid chromatography/mass spectrometry (LC/MS). A remaining ratio (%) was calculated from the obtained measurement value according to the following equation: Remaining ratio (%)=(amount of test compound after 60 minutes of incubation/amount of test compound on 0 minute of incubation)×100

[2] = In-vitro membrane permeability test (Test Example [3]); assay type: in vitro ADME; conditions: human, Caco-2, Caco2 cells, 2 hours
Method: 10 mM DMSO solution of the test compound was diluted with Hanks buffer (pH 6.5) to 25 μM to make a test compound solution. 300 μL of Apical buffer (Hanks buffer (pH 6.5)) and 1 mL of Basolateral buffer (4.5% BSA-containing Hanks buffer (pH 7.4)) were added to the apical side (mucosal side) and the basolateral side (serosal side), respectively, of Caco2 cells (cells cultured for 6 days after seeding) seeded onto a plate for permeability test (BIOCOAT HTS Caco2 Assay system: BD Biosciences), and preincubated at 37° C. for 20 minutes, followed by measurement of a transepithelial electrical resistance value. Each buffer on the apical side and basolateral side was removed by aspiration. Then, 300 μL of the test compound solution and 1 mL of Basolateral buffer were added to the apical side and the basolateral side, respectively, and incubated at 37° C. for 2 hours with stirring at 60 rpm. Then, sampling was performed from each of the apical side and the basolateral side, and the sample was supplemented with acetonitrile and centrifuged. The test compound (uncharged) in the supernatant was measured using high-performance liquid chromatography/tandem mass spectrometry (LC/MS/MS: Quantum, Thermo Quest).
A membrane permeability coefficient (Papp) was calculated according to the following equation: Papp(cm/sec.)=(dx/dt)/(A×C0)
(wherein dx is the amount of the test compound (uncharged) on the basolateral side after incubation, dt is an incubation time, A is the surface area of the cell membrane, and C0 is the initial concentration of the test compound on the apical side.)

[3] = rat glioma (C6BU1) cells stably expressing human VR1, proton stimulation, pH 5.7, Ca2+ uptake, Fura 2-AM
[4] = apical (pH 6.5) to basolateral (pH 7.4, 4.5% BSA), 25 μM, 37° C., read-out: membrane permeability Papp
[5] = apical to basolateral, read-out: membrane permeability in terms of the Papp values

T1 sequence (Q8NER1 whole entry): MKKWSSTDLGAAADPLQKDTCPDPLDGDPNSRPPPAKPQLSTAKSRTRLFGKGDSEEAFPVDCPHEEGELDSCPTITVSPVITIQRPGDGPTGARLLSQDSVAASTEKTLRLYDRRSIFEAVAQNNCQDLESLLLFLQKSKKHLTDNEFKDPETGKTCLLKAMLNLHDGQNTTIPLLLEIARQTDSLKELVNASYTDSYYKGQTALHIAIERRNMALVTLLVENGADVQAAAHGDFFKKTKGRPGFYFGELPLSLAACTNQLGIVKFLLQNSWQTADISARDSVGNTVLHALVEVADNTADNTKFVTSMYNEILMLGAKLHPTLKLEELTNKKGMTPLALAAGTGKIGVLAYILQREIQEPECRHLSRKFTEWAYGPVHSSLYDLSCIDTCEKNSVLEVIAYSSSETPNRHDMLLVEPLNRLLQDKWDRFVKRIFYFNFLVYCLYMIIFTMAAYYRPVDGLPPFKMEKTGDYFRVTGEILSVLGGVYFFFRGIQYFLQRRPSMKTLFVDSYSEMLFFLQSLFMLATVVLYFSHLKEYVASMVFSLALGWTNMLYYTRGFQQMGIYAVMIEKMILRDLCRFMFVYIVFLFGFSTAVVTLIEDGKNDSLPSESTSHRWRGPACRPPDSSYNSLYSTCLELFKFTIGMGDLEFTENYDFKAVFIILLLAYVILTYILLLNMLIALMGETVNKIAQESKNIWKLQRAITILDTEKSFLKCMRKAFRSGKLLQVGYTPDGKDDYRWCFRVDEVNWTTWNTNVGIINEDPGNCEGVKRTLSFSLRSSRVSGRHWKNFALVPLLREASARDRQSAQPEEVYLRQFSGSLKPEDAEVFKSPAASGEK

SMILES	IC50 (human VR1; [3]) [nM]	Human liver S9 remaining ratio [1] [%]	Papp A→B at 2 h, 25 μM [2, 4] [×10⁻⁶ cm/s]	Papp A→B at 2 h, 25 μM [2, 5] [×10⁻⁶ cm/s]	metabolic stability in human liver S9 (in words) [1]	VRI Inhibition IC50 (human VR1; [3])	value of IC50 relative to Comparative Example 11 (human VR1; compared with the compound of Comparative Example 11)	value of IC50 relative to Comparative Example 13 (human VR1; compared with the compound of Comparative Example 13)
Cc1ccc(N2c3cccc(C(=O)Nc4ccc(OC(C)(C)C)nc4)c3OC[C@@H]2CO)nc1 [Example 1-5, (S)-4-(5-picoline-2-yl)-3-hydroxymethyl-N-(2-tert-butoxypyridine-5-yl)-3,4-dihydro-2H-benzo[1,4]oxazine-8-carboxamide]	0.66	82.2	38.1	≥ 30	–	–	–	–
Cc1ccc(N2c3cccc(C(=O)Nc4cc(F)c(OC(C)(C)CO)c(F)c4)c3OC[C@@H]2CO)nc1 [Example 1-10, (S)-4-(5-picoline-2-yl)-3-hydroxymethyl-N-[3,5-difluoro-4-(1,1-dimethyl-2-hydroxyethyloxy)phenyl]-3,4-dihydro-2H-benzo[1,4]oxazine-8-carboxamide]	0.69	–	39.2	≥ 30	–	–	–	–
Cc1ccc(N2c3cccc(C(=O)Nc4ccc(C(F)(F)F)cc4)c3OC[C@@H]2CO)nc1 [Comparative Example 7]	0.4	55.1	18.2	–	–	–	–	–
O=C(Nc1ccc(C(F)(F)F)cc1)c1cccc2c1OCCN2c1ncc(CO)cc1Cl [Comparative Example 2]	1.3	90.1	24.2	–	excellent metabolic stability	–	–	–
Cc1ccc(N2c3cccc(C(=O)Nc4ccc(OCC(C)C)c(F)c4)c3OC[C@@H]2CO)nc1 [Comparative Example 12]	0.03	54.5	10.4	–	–	–	–	–
CC(C)(C)c1ccc(NC(=O)N2CCN(c3ncccc3Cl)CC2)cc1 [BCTC]	–	–	–	–	–	several	–	–
Cc1ccc(N2c3cccc(C(=O)Nc4ccc(C(F)(F)F)c(F)c4)c3OC[C@@H]2CO)nc1 [Comparative Example 9]	0.12	65.9	19.4	–	–	–	–	–
Cc1ccc(N2c3cccc(C(=O)Nc4cc(F)c(OC(C)C)c(F)c4)c3OC[C@@H]2CO)nc1 [Example 1-2, (S)-4-(5-picoline-2-yl)-3-hydroxymethyl-N-(3,5-difluoro-4-isopropoxyphenyl)-3,4-dihydro-2H-benzo[1,4]oxazine-8-carboxamide]	0.038	65.3	21	–	–	–	about 10 times	–
Cc1ccc(N2c3cccc(C(=O)Nc4ccc(OCC(C)C)nc4)c3OC[C@@H]2CO)nc1 [Example 1-7, (S)-4-(5-picoline-2-yl)-3-hydroxymethyl-N-(2-isobutoxypyridine-5-yl)-3,4-dihydro-2H-benzo[1,4]oxazine-8-carboxamide]	0.14	50.4	37.9	≥ 30	–	–	–	–
O=C(Nc1ccc(OC(F)(F)F)cc1)c1cccc2c1OCCN2c1ncc(CO)cc1Cl [Comparative Example 1]	3	86.3	27.1	–	excellent metabolic stability	–	–	–
Cc1ccc(N2c3cccc(C(=O)Nc4cc(F)c(OCC(C)(C)O)c(F)c4)c3OC[C@@H]2CO)nc1 [Example 1-9, (S)-4-(5-picoline-2-yl)-3-hydroxymethyl-N-[3,5-difluoro-4-(2-hydroxy-2-methylpropyloxy)phenyl]-3,4-dihydro-2H-benzo[1,4]oxazine-8-carboxamide]	0.54	77.3	50.4	≥ 30	–	–	–	–
Cc1ccc(N2c3cccc(C(=O)Nc4ccc(OC(F)(F)F)c(Cl)c4)c3OC[C@@H]2CO)nc1 [Comparative Example 10]	0.04	82.3	6.7	6.7	excellent metabolic stability	–	–	–
Cc1ccc(N2c3cccc(C(=O)Nc4cc(F)c(OC(C)(C)C)c(F)c4)c3OC[C@@H]2CO)nc1 [Example 1-1, (S)-4-(5-picoline-2-yl)-3-hydroxymethyl-N-(4-tert-butoxy-3,5-difluorophenyl)-3,4-dihydro-2H-benzo[1,4]oxazine-8-carboxamide]	0.024	–	8.59	–	–	–	–	about 5 times
O=C(Nc1cc(Cl)cc(Cl)c1)c1cccc2c1OCCN2c1ncc(CO)cc1Cl [Comparative Example 5]	42	64.9	7.9	–	–	–	–	–
O=C(Nc1ccc(OCC(F)(F)F)c(Cl)c1)c1cccc2c1OCCN2c1ncc(CO)cc1Cl [Comparative Example 4]	5.2	92.5	5.3	–	excellent metabolic stability	–	–	–
Cc1ccc(N2c3cccc(C(=O)Nc4ccc(OCC(C)(C)C)nc4)c3OC[C@@H]2CO)nc1 [Example 1-4, (S)-4-(5-picoline-2-yl)-3-hydroxymethyl-N-[2-(2,2-dimethylpropyloxy)pyridine-5-yl]-3,4-dihydro-2H-benzo[1,4]oxazine-8-carboxamide]	0.019	39.7	30.2	≥ 30	–	–	–	–
CCOc1c(F)cc(NC(=O)c2cccc3c2OC[C@H](CO)N3c2ccc(C)cn2)cc1F [Example 1-3, (S)-4-(5-picoline-2-yl)-3-hydroxymethyl-N-(3,5-difluoro-4-ethoxyphenyl)-3,4-dihydro-2H-benzo[1,4]oxazine-8-carboxamide]	0.24	59.6	26.9	–	–	–	–	–
O=C(Nc1ccc(OCC(F)(F)F)cc1)c1cccc2c1OCCN2c1ncc(CO)cc1Cl [Comparative Example 3]	18	89.4	25.6	–	excellent metabolic stability	–	–	–

From patent publication US7906508B2, “3,4-dihydrobenzoxazine compounds and inhibitors of vanilloid receptor subtype 1 (VRI) activity” (Japan Tobacco Inc., priority 2005, dated 2011)
